According to patent publication US20080069849A1, “Novel Antimicrobial Peptides” (Dermagen AB, priority 2004, published 2008):

Legend:
[1] = test system: Escherichia coli 37.4; test: Radial diffusion assay (RDA), E. coli 37.4; format: cell-based; conditions: for RDA (mm) E. coli 37.4 Mean: zone of inhibition
Procedure: (§1) Escherichia coli 37.4 isolate was originally obtained from a patient with a chronic venous ulcer, while Staphylococcus aureus isolate BD14312 was from a patient with atopic dermatitis. Staphylococcus aureus ATCC29213 and Candida albicans ATCC90028 were both obtained from the Clinical Bacteriology Department at Lund University hospital.
(§2) Essentially as described earlier (Lehrer et al., J Immunol Methods 137, 167-173, 1991, Andersson et al., Eur J Biochem 271, 1219-1226, 2004) bacteria were grown to mid-logarithmic phase in 10 ml of full-strength (3% w/v) trypticase soy broth (TSB) (Becton-Dickinson, Cockeysville, Md.). The microorganisms were then washed once with 10 mM Tris, pH 7.4.4×10^6 bacterial colony forming units were added to 15 ml of the underlay agarose gel, consisting of 0.03% (w/v) TSB, 1% (w/v) low electroendosmosis type (EEO) agarose (Sigma, St Louis Mo.) and 0.02% (v/v) Tween 20 (Sigma). The underlay was poured into a ø 144 mm petri dish. After agarose solidification, 4 mm-diameter wells were punched and 6 μl of test sample was added to each well. Plates were incubated at 37° C. for 3 hours to allow diffusion of the peptides. The underlay gel was then covered with 15 ml of molten overlay (6% TSB and 1% Low-EEO agarose in dH2O). Antimicrobial activity of a peptide is visualized as a zone of clearing around each well after 18-24 hours of incubation at 37° C.

[2] = Heparin binding on nitrocellulose with radiolabelled heparin; conditions: unlabelled heparin 6 mg/ml
Procedure: Peptides were tested for heparin binding activities. Peptides were applied on nitrocellulose membranes (Hybond, Amersham Biosciences). Membranes were blocked (PBS, pH 7.4, 0.25% Tween 20, 3% bovine serum albumin) for one hour and incubated with radiolabelled heparin for one hour in the same buffer. […] The membranes were washed (3×10 min in PBS, pH 7.4, 0.25% Tween 20). A Bas 2000 radio imaging system (Fuji) was used for visualization of radioactivity.

[3] = Binding to lipid bilayers by ellipsometry; conditions: 10 mM Tris, pH 7.4
Procedure: (§3) Peptides were tested for binding to lipid bilayers, resulting pore formation and peptide secondary structure in the lipid membranes. Lipid membranes investigated included both zwitterionic ones (containing phosphatidylcholine) and anionic ones (containing mixtures of phosphatidylcholine and phosphatidic acid). Lipid membranes were deposited at silica, and the binding of the peptides from 10 mM Tris, pH 7.4, was directly monitored by ellipsometry. […] Pore formation in these liposomes were determined by including carboxyfluorescein in the liposomes and following the fluorescence intensity increase on addition of peptides to the liposomes. Furthermore, the secondary structure of the peptides in the liposome lipid membranes was probed by circular dichroism.

[4] = Pore formation / carboxyfluorescein leakage of liposomes; conditions: 10 mM Tris, pH 7.4
Procedure: as §3

[5] = test system: Pseudomonas aeruginosa 15159; test: Radial diffusion assay (RDA), P. aeruginosa 15159; format: cell-based; conditions: 100 μM of peptides, n=9
Procedure: as §2
Based on the criteria defined in EXAMPLE 1 several new variants with increased positive net charge, high helicity and increased amphipathicity were designed and synthesized. In order to rationally test as many different variants as possible a PEP screen library was utilized as described above. […]

[6] = test system: Staphylococcus aureus isolate BD14312; test: Radial diffusion assay (RDA), S. aureus BD14312; format: cell-based; conditions: zone of inhibition; mean of three measurements; Table 1
Procedure: as §1, §2

[7] = test system: Staphylococcus aureus ATCC29213; test: Radial diffusion assay (RDA), S. aureus ATCC29213; format: cell-based; conditions: zone of inhibition
Procedure: as §1, §2

[8] = test system: Candida albicans ATCC90028; test: Radial diffusion assay (RDA), Candida ATCC90028; format: cell-based; conditions: zone of inhibition; mean of three measurements; Table 1
Procedure: as §1, §2

[9] = Table 2, second generation PEPscreen

Compound | RDA mean value, E. coli ([1]; 100 μM of peptides, n=9) | heparin binding, competition by unlabelled heparin [2] | binding to lipid membranes [3] | pore formation and leakage of liposomes, order of efficiency [4] | RDA mean value, P. aeruginosa [5] | RDA (mm) E. coli 37.4 Mean [1, 9] [mm] | RDA (mm) E. coli 37.4 Mean ([1]; mean of six measurements, Table 1) [mm] | RDA (mm) S. aureus BD14312 Mean [6] [mm] | RDA (mm) S. aureus ATCC29213 Mean [7, 9] [mm] | RDA (mm) S. aureus ATCC29213 Mean ([7]; mean of three measurements, Table 1) [mm] | RDA (mm) Candida ATCC90028 Mean [8] [mm]
CNYITELRRQHARASHLGLAR [CNY21] | 6.02 | inhibited the binding | binds to zwitterionic and anionic lipid membranes | CNY21H-L≈CNY21H-K>CNY21>CNY21H-P≧CNY21 R-S | 5.00 |  |  |  |  |  | 
CNYITELSSQHASASHLGLAR [CNY21R-S] |  |  | CNY21 shows a higher binding tendency than CNY21 R-S | CNY21H-L≈CNY21H-K>CNY21>CNY21H-P≧CNY21 R-S |  |  |  |  |  |  | 
CC[C@H](C)[C@H](NC(=O)[C@H](CCCCN)NC(=O)[C@H](CCC(=O)O)NC(=O)[C@H](CCCCN)NC(=O)[C@H](CO)NC(=O)[C@H](CCCCN)NC(=O)[C@H](CCCNC(=N)N)NC(=O)[C@H](Cc1ccccc1)NC(=O)[C@H](Cc1ccccc1)NC(=O)[C@H](CC(=O)O)NC(=O)CNC(=O)[C@H](CC(C)C)NC(=O)[C@@H](N)CC(C)C)C(=O)NCC(=O)N[C@@H](CCCCN)C(=O)N[C@@H](CCC(=O)O)C(=O)N[C@@H](Cc1ccccc1)C(=O)N[C@@H](CCCCN)C(=O)N[C@@H](CCCNC(=N)N)C(=O)N[C@H](C(=O)N[C@H](C(=O)N[C@@H](CCC(N)=O)C(=O)N[C@@H](CCCNC(=N)N)C(=O)N[C@H](C(=O)N[C@@H](CCCCN)C(=O)N[C@@H](CC(=O)O)C(=O)N[C@@H](Cc1ccccc1)C(=O)N[C@@H](CC(C)C)C(=O)N[C@@H](CCCNC(=N)N)C(=O)N[C@@H](CC(N)=O)C(=O)N[C@@H](CC(C)C)C(=O)N[C@H](C(=O)N1CCC[C@H]1C(=O)N[C@@H](CCCNC(=N)N)C(=O)N[C@H](C(=O)N[C@@H](CCC(=O)O)C(=O)N[C@@H](CO)C(=O)O)[C@@H](C)O)C(C)C)[C@@H](C)CC)C(C)C)[C@@H](C)CC [LL37, reference compound] |  |  |  |  |  | 5.604 | 3.529 | 1.285 | 8.755 | 2.215 | 2.43
